From paper PMC11721293 (JCI Insight, 2025)
Where “and” joins values, the source holds several entries; their conditions need not be identical. Equal entries are not always repeated. Where two headings read alike, the source gives them in different places.

What was measured:
[1] = system: VSV-SARS-CoV-2-S pseudovirus; test: microbe, parasite or virus in culture; format: cell-based; conditions: for EC50: read-out: EC50
[2] = system: Huh7 cells; conditions: initial screening
[3] = system: HEK293A2T2 cells; conditions: initial screening
[4] = system: lysosomal compartment; test: LysoTracker staining of VeroTA6 cells
Method: (A) VeroTA6 cells were seeded
post treatment, the cells were stained with lysotracker (Thermofisher, L7528) and visualized under
the microscope (left). The fluorescence intensity was captured and quantified for each treatment
B), the significance was calculated using one-way ANOVA with Dunnett’s test with multiple
comparison to the DMSO control, and the P values are depicted as ns for P>0.05, ** for P <0.01,

[5] = system: SARS-CoV-2; format: cell-based; design: TOA: unit not given here
[6] = system: SARS-CoV-2-nLUC; test: microbe, parasite or virus in culture; format: cell-based; conditions: for EC50: Severe acute respiratory syndrome coronavirus 2, Vero C1008, 24 h, Fig 1G, Fig 5B, read-out: EC50
[7] = in vitro; conditions: African green monkey
[8] = system: FTase (HDJ2 farnesylation); test: HDJ2 electrophoretic mobility shift (Western blot); format: cell-based; conditions: 24 h treatment
[9] = system: SARS-CoV-2-nLUC; format: cell-based; conditions: Nirmatrelvir 5 uM, Lonafarnib 0 uM
[10] = system: SARS-CoV-2-nLUC; format: cell-based
[11] = system: SARS-CoV-2 strain USA-WA1/2020; format: in vivo, mouse; conditions: mouse, in vivo
[12] = system: SARS-CoV-2 strain USA-WA1/2020; format: in vivo, mouse; conditions: mouse, in vivo; remark: listed apart in the source
[13] = biological target: viral RdRp (Severe acute respiratory syndrome coronavirus 2, UniProt P0DTD1); test: In vitro RdRp activity assay (RNA extension); format: biochemical, SARS-CoV-2; conditions: LNF 0.1, 1 and 10 μM; TEMPOL 100 μM

Row | SMILES | Max % [1] | CC50 [2] | EC50 [1] | other results
1 | CN1CCN([C@@H](c2ccccc2)c2ccc(Cl)cc2)CC1 [NCGC00343775] | 77.3% | 11.2 µM | – | CC50 [3]: > 30 µM
2 | Clc1ccc(C(c2ccccc2)N2CCNCC2)cc1 (stereo not shown) [NCGC00345880] | 99.6% and 75.2% | 13.4 µM | – | CC50 [3]: > 30 µM
3 | OCCOCCN1CCN([C@@H](c2ccccc2)c2ccc(Cl)cc2)CC1 [NCGC00018255] | 26.3% | > 30 µM | > 100 µM | –
4 | CN1CCC(N(c2ccccc2)c2ccccc2)CC1 [NCGC00351675] | 17.1% | > 30 µM | > 100 µM | –
5 | c1ccc2c(c1)Sc1ccccc1N2CC1CN2CCC1CC2 (stereo not shown) [NCGC00183046] | – | 26.3 µM | – | CC50 [3]: > 30 µM
6 | Cl.Cl.O=C(O)COCCN1CCN(C(c2ccccc2)c2ccc(Cl)cc2)CC1 (stereo not shown) [NCGC00016949] | 29.7% | > 30 µM | > 30 µM | –
7 | CN1CCN(C(c2ccc(Cl)cc2)c2ccc(Cl)cc2)CC1 [NCGC00351413] | 67.9% | 12.9 µM | 2.6 µM | –
8 | CN1CCC(CN2c3ccccc3Sc3ccccc32)C1 (stereo not shown) [NCGC00014482] | – | > 30 µM | – | CC50 [3]: > 30 µM
9 | CCN(CC)CCCC(C)Nc1ccnc2cc(Cl)ccc12 (stereo not shown) [CQ, Chloroquine] | – | – | – | LysoTracker fluorescence intensity ([4]; VeroTA6, 10 μM, 30 min): significant reduction in fluorescence intensity; Lysotracker ([4]; sheet S5A, individual measurements): 560.723 and 174.035 and 160.899 and 432.593 and 438.73 and 246.495 and 247.855 and 602.458 and 376.298 and 321.5 and 378.198 and 326.501 and 374.374 and 217.144 and 290.704 and 270.841 and 377.374 and 275.759 and 524.267 and 701.544 and 422.374
10 | COc1ccc(CN2CCN([C@@H](c3ccccc3)c3ccc(Cl)cc3)CC2)c(OC)c1 [NCGC00346845] | 64.2% | 24.6 µM | 22.5 µM | –
11 | CCN1CCN(C2c3ccccc3-c3ccc(Br)cc32)CC1 (stereo not shown) [NCGC00351673] | 77.7% | > 30 µM | 28.1 µM | –
12 | Clc1ccc(C(c2ccccc2)N2CCNCC2)cc1 (stereo not shown) [NCGC00345879] | 100.0% | 28 µM | 3 µM | –
13 | CN1CCCN([C@@H](c2ccccc2)c2ccc(Cl)cc2)CC1 [NCGC00018271] | – | > 30 µM | – | CC50 [3]: > 30 µM
14 | CN(C)C(=O)COC(=O)Cc1ccc(OC(=O)c2ccc(NC(=N)N)cc2)cc1 [camostat] | – | – | – | time-of-addition result [5]: only E64d, and not camostat, was effective in blocking the entry step
15 | Clc1ccc(C(c2ccccc2)N2CCNCC2)cc1 (stereo not shown) [NCGC00245963] | 99.5% | > 30 µM | – | CC50 [3]: > 30 µM
16 | CN1CCC(N(Cc2cccs2)c2ccccc2)CC1 [NCGC00183847] | 64.0% and 54.6% | > 30 µM | 11.4 µM and 18.4 µM | CC50 [3]: > 30 µM
17 | CN1CCN(C(c2ccccc2)c2ccc(Cl)cc2)CC1 (stereo not shown) [NCGC00179384] | – | – | – | CC50 [3]: > 30 µM
18 | Cn1cncc1[C@@](N)(c1ccc(Cl)cc1)c1ccc2c(c1)c(-c1cccc(Cl)c1)cc(=O)n2C [Tipifarnib, tipifarnib] | – | – | – | EC50 ([6]; VeroE6, 24 h): 8.86 µM; Replication ([6]; Tipifarnib, log concentration 0.273001): 115.708 and 115.2 and 116.296 and 113.383; Replication ([6]; Tipifarnib, log concentration 0.875061): 62.3306 and 62.0856 and 61.494 and 61.1331; Replication ([6]; Tipifarnib, log concentration -0.630089): 101.05 and 102.091 and 101.412 and 103.944; Replication ([6]; Tipifarnib, log concentration -1.23215): 100.484 and 100.389 and 101.92 and 99.313; time-of-addition result [5]: modest effect on the early stage of infection, while the efficacy was much higher in the late stage; TOA ([5]; treatment window (0,2)): 76.7425 and 75.484 and 113.203 and 99.7613 and 81.3458 and 84.3089 and 102.68 and 108.689; TOA ([5]; treatment window (-2,0)): 92.86 and 92.659 and 88.2304 and 87.5224 and 122.157 and 114.273 and 92.7843 and 93.347; TOA ([5]; treatment window (-2,2)): 31.6226 and 35.7452 and 33.0851 and 30.5839 and 34.705 and 34.7924 and 25.2067 and 23.5518; CC50 at 24 h [7]: > 30 µM
19 | Clc1ccc([C@H](c2ccccc2)N2CCN(C3CCCCC3)CC2)cc1 [NCGC00347039] | 70.8% | 14.1 µM | 4 µM | –
20 | CN(C)CCCN1c2ccccc2Sc2ccccc21 [NCGC00015829] | – | 18.4 µM | – | CC50 [3]: > 30 µM
21 | Cc1cccn2c(=O)c(-c3nnn[n-]3)cnc12.[K+] [NCGC00167434] | 24.2% | – | > 30 µM | –

Row | SMILES | Max % [1] | CC50 [2] | EC50 [1] | other results
22 | CN(C)CC/C=C1/c2ccccc2COc2ccc(CC(=O)O)cc21 [NCGC00263532] | – | – | > 30 µM | –
23 | COC(=O)[C@H](CCSC)NC(=O)c1ccc(NC[C@@H](N)CS)cc1-c1ccccc1 [FTI-277] | – | – | – | Replication ([6]; FTI-277, log concentration 0.670941): 89.119 and 77.5271 and 84.1138 and 103.187; Replication ([6]; FTI-277, log concentration 1.273): 92.4526 and 80.5819 and 108.059 and 113.995; Replication ([6]; FTI-277, log concentration 1.87506): 83.8498 and 84.554 and 94.5905 and 116.747; Replication ([6]; FTI-277, log concentration -0.232149): 89.4553 and 85.664 and 88.5087 and 105.35; EC50 ([6]; VeroE6, 24 h): 110 µM; time-of-addition result [5]: modest effect on the early stage of infection, while the efficacy was much higher in the late stage; TOA ([5]; treatment window (0,24)): 1.616 and 2.237 and 1.147 and 1.155 and 1.238 and 1.196 and 1.435; TOA ([5]; treatment window (2,4)): 73.8837 and 74.2661 and 52.3189 and 51.5089 and 53.0507 and 54.4857 and 76.2725 and 76.8029; TOA ([5]; treatment window (-2,0)): 151.258 and 149.655 and 121.084 and 123.07 and 140.174 and 141.115 and 96.719 and 94.1082; TOA ([5]; treatment window (-2,2)): 54.1321 and 53.7538 and 48.4664 and 48.121 and 49.0338 and 47.603 and 41.7688 and 40.1735; anti-FTase activity, HDJ2 shift [8]: weaker anti-FTase activity; CC50 at 24 h [7]: 220 µM
24 | Clc1ccc(C(c2ccc(Cl)cc2)N2CCOCC2)cc1 [NCGC00354586] | – | > 30 µM | > 100 µM | –
25 | CCN1CCN(C(c2ccc(Cl)cc2)c2ccc(Cl)cc2)CC1 [NCGC00351414] | 83.6% | > 30 µM | – | CC50 [3]: > 30 µM
26 | OC(c1ccccc1)(c1ccccc1)C1CN2CCC1CC2 (stereo not shown) [NCGC00160492] | – | – | > 30 µM | –
27 | CN1CCN([C@H](c2ccccc2)c2ccc(Cl)cc2)CC1 [NCGC00343774] | 66.4% | 14.4 µM | – | CC50 [3]: > 30 µM
28 | Cc1nc[nH]c1CN1CCN(C(=O)N[C@@H](CC(C)C)C(=O)O)[C@@H](Cc2ccccc2)C1=O [GGTI2418] | – | – | – | effect on viral replication ([6]; VeroE6, 15 μM GGTI, 24 h): no effect on viral replication
29 | CN1CCC[C@@H]1CCO[C@](C)(c1ccccc1)c1ccc(Cl)cc1 [NCGC00016710] | – | > 30 µM | – | CC50 [3]: > 30 µM
30 | COc1ccc(CN(CCN(C)C)c2ccccn2)cc1 [NCGC00015822] | 49.2% | – | > 30 µM | –
31 | CN1CCC(N(c2ccccc2)c2ccc(OC(C)(C)C)cc2)CC1 [NCGC00346851] | 68.3% | > 30 µM | 14.9 µM | –
32 | CC(=O)N1CCN([C@@H](c2ccccc2)c2ccc(Cl)cc2)CC1 [NCGC00347049] | – | > 30 µM | > 100 µM | –
33 | FC(F)(F)CN1CCN([C@@H](c2ccccc2)c2ccc(Cl)cc2)CC1 [NCGC00351281] | 21.1% | > 30 µM | > 100 µM | –
34 | CN1CCC(=C2c3ccccc3C=Cc3ccccc32)CC1 [NCGC00015252] | 52.7% | – | 12.3 µM | –
35 | CC(C)(C)[C@H](NC(=O)C(F)(F)F)C(=O)N1C[C@H]2[C@@H]([C@H]1C(=O)N[C@H](C#N)C[C@@H]1CCNC1=O)C2(C)C [NRTV, nirmatrelvir] | – | – | – | Response [9]: 21.0635 and 36.2768 and 23.2893; Response [10]: 96.7462 and 94.1773 and 94.981; Response ([10]; Lonafarnib 0 uM, Nirmatrelvir 0.3125 uM, sheet S3B, replicates): 50.9786 and 35.7701 and 31.2174; Response ([10]; Lonafarnib 0 uM, Nirmatrelvir 0.625 uM, sheet S3B, replicates): 89.9445 and 77.1784 and 77.0959; Response ([10]; Lonafarnib 0 uM, Nirmatrelvir 2.5 uM, sheet S3B, replicates): 97.3124 and 96.7918 and 96.5986; Response ([10]; Lonafarnib 0 uM, Nirmatrelvir 5 uM, sheet S3B, replicates): 97.4859 and 97.2147 and 96.9835
36 | CCC(CC)COC(=O)[C@H](C)N[P@](=O)(OC[C@H]1O[C@@](C#N)(c2ccc3c(N)ncnn23)[C@H](O)[C@@H]1O)Oc1ccccc1 [RDV, Remdesivir] | – | – | – | time-of-addition result [5]: minimal effect when added for a limited duration at early time points, but showed maximum efficacy when it was added later after infection; lung viral titer [11]: did not show much reduction in viral titers; composite clinical score [12]: much improved disease parameters
37 | C(=C/c1ccccc1)/CN1CCN(C(c2ccccc2)c2ccccc2)CC1 [NCGC00015246] | 65.8% | 22 µM | > 30 µM | –
38 | CN(C)CCOC(c1ccccc1)c1ccccc1 [NCGC00015335] | 17.9% | – | – | –
39 | CC1(C)CC(O)CC(C)(C)N1[O] [TEMPOL] | – | – | – | polymerase activity, primer extension [13]: inhibited
40 | CCOC(=O)N1CCC(=C2c3ccc(Cl)cc3CCc3cccnc32)CC1 [NCGC00015619] | – | – | > 30 µM | –
41 | C[C@@H](CN1c2ccccc2Sc2ccccc21)N(C)C [NCGC00015817] | 87.0% | – | 4.5 µM | –
42 | CN1CCN(C(c2ccccc2)c2ccccc2)CC1 [NCGC00016421] | 58.1% | > 30 µM | 25.2 µM | –
